5 compounds from patent US12077527B2, “Compositions and methods for inhibiting ACSS2” (THE TRUSTEES OF THE UNIVERSITY OF PENNSYLVANIA, priority 2017, dated 2024) can be followed below.

One test addresses T1, ACSS2 (Mus musculus, UniProt Q9QXG4).
T1 construct: from tissue; host or cells: brain (hippocampus) of living mice
Description: Incorporation of alcohol-derived heavy acetyl groups into brain histone acetylation (Example 6). In kind it is in vivo. As to conditions: mice treated with ACSS2 inhibitor. The protocol: To investigate the direct role of ACSS2 in alcohol-dependent acetylation in the brain, mice are treated with an ACSS2 inhibitor, ADG-204, ADG-205, ADG-206, or ADG-207. […] In contrast, in control mice, vHPC incorporation of the heavy label is not affected. Thus, acetate derived from hepatic alcohol metabolism is transported to the brain and readily incorporated into histone acetylation.

In test [1] the test system is differentiated CAD neurons. Put plainly: Nuclear acetyl-CoA quantification (PicoProbe assay) in differentiated CAD neurons. As to conditions: versus control, n=3. The class given is cell-based, mouse. The method, then: (§1) CAD cells (Cath.-a-differentiated) were grown in Dulbecco's modified Eagle's medium (DMEM):Ham's F12 (1:1), supplemented with 2 mM glutamine, 1% penicillin/streptomycin, and 10% fetal bovine serum (FBS). To induce neuronal differentiation, sub-confluent CAD cell cultures (50-60%) were transferred to serum-free medium (DMEM:Ham's F12 (1:1) supplemented with 2 mM glutamine) and maintained in […] culture dishes for 5 days. […] For knockdown experiments, CAD cells were infected with lentiviral hairpin constructs (TRC collection) designed against ACL (#TRCN0000055217) or ACSS2 (#TRCN0000076124, #TRCN0000076125) in medium containing […] polybrene and 10% FBS for 24 hours. Cells then underwent selection in culture medium supplemented with 0.5 mg/mL puromycin for 5 days to obtain a stably infected population. Cell treatment with ACSS2i (1-(2,3-di(thiophen-2-yl)quinoxalin-6-yl)-3-(2-methoxyethyl)urea (DMSO)) was carried out for 24 hours at a final concentration of 20 μM (treatment with DMSO alone served as control).
To extract and quantify acetyl-CoA from differentiated CAD neurons, 4×10^6 cells were washed and incubated in lysis buffer for 30 min (10 mM Tris pH 8, 1 mM KCl, 1.5 mM MgCl2, 1 mM DTT). […] The PicoProbe assay was performed in 96-well clear-bottom plates, and the resulting fluorescence was quantified using the Synergy HTX Multi-Mode Microplate Reader (BioTek Instruments).

In test [2] the test system is primary hippocampal neurons. Description: RNA-seq of acetate-treated primary hippocampal neurons with or without ACSS2i. In kind it is cell-based, mouse. The protocol: All RNA-seq data were prepared for analysis as follows: NextSeq sequencing data was demultiplexed using native apps on BaseSpace. Demultiplexed FASTQs were aligned by RNA-STAR 2.5.2 to assembly mml0 (GRCm38). Aligned reads were mapped to genomic features using HTSeq 0.6.1. Quantification, library size adjustment, and differential gene expression analysis was done using DESeq2 and Wald's test (pairwise contrasts between acetate and DMSO-treatment in the inhibitor-treated or untreated cells, followed by a set overlap of differentially expressed genes). Gene list overlaps were tested for significance using the hypergeometric test.
Next, the functional relevance of alcohol-derived acetate for ACSS2-dependent histone acetylation in regulating hippocampal gene expression was examined (FIG. 23E, right). […] However, in line with the ChIP-seq data, this response was markedly blunted in ACSS2 KD mice. […] Because alcohol and acetate have pleiotropic effects on brain circuitry and metabolism, an in vitro assay was then developed to more closely model the direct effects of exogenous acetate on gene expression. […]

In test [3] the test system is differentiated CAD neurons. Description: RNA-seq of differentiated CAD neurons treated with ACSS2i. The class given is cell-based, mouse. The protocol:
as §1
To generate libraries for RNA-seq, poly(A)^+ RNA was extracted using the Dynabeads mRNA Direct kit (Ambion) according to the manufacturer's instructions. […] The quantity and quality of the libraries were assessed by BioAnalyzer (Agilent) and qPCR (Kapa Biosystems). The multiplexed libraries were pooled and sequenced on a single lane on the Illumina NextSeq 500 platform (50 bp, single-end reads). […] The aligned reads were mapped to genomic features using cufflinks-2.2.1, (-G parameter to quantify only known features), and iGenomes mml0 UCSC genomic transcript loci. The rRNA, […], and tRNA of the mouse genome were downloaded from the goldenPath UCSC FTP and were masked from the transcript quantification. After quantification, all data processing was done using python pandas library v.0.14.0. […] The statistical significance of the trend and reproducibility were assessed by taking the top 20% of genes by loss of expression in the knockdown and comparing the expression of these genes in inhibitor-treated cells to a random sample of genes outside this set (Mann-Whitney test).

Test [4] has as its system primary hippocampal neurons. Description: Western blots of lysates from primary hippocampal neurons treated with ACSS2i. The class given is cell-based, mouse. The conditions noted are these: day 7 neurons, ACSS2i 24 hours, western blot. The protocol: Cells were lysed in buffer containing 50 mM Tris pH 8.0, 0.5 mM EDTA, 150 mM NaCl, 1% NP40, 1% SDS, supplemented with protease inhibitor cocktail (Life Technologies, number 78446). For subcellular fractionation experiments, the cells were processed using the subcellular fractionation kit for cultured cells (Thermo Scientific, number 78840) according to the manufacturer's instructions. Protein concentration was determined by BCA protein assay (Life Technologies, number 23227), and equal amounts of protein were used in co-immunoprecipitation experiments or directly loaded onto polyacrylamide gels. The endogenous co-immunoprecipitation experiments were performed using antibody-conjugated protein A Dynabeads (Life Technologies) in buffer containing: 20 mM Tris, pH 8.0, 137 mM NaCl, 1 mM MgCl2, 1 mM CaCl2, 1% NP-40, 10% glycerol, with protease and phosphatase inhibitors, and 12.5 U/mL benzonase (Novagen, 70746). Proteins or co-immunoprecipitation eluates were loaded and separated on 4-12% Bis-Tris polyacrylamide gels (NuPAGE). After transfer to nitrocellulose membrane, 3% BSA in TBS supplemented with 0.1% Tween 20 (TBST) was used to block the membrane at room temperature for 1 hour. Primary antibodies were diluted in TBST, and incubated at 4° C. overnight. Primary antibodies are listed below. The membrane was washed three times with TBST, each for 10 min, followed by incubation with HRP-conjugated secondary antibodies at room temperature for 1 hour, in TBST. The membrane was washed again three times, and imaged with a Fujifilm LAS-4000 imager. Original gel blots are provided as FIGS. 14-16. […]
(In general: Immunoblotting shows a protein as a band on a membrane.)

SMILES strings stand for the structures.

T1 sequence (Q9QXG4 whole entry): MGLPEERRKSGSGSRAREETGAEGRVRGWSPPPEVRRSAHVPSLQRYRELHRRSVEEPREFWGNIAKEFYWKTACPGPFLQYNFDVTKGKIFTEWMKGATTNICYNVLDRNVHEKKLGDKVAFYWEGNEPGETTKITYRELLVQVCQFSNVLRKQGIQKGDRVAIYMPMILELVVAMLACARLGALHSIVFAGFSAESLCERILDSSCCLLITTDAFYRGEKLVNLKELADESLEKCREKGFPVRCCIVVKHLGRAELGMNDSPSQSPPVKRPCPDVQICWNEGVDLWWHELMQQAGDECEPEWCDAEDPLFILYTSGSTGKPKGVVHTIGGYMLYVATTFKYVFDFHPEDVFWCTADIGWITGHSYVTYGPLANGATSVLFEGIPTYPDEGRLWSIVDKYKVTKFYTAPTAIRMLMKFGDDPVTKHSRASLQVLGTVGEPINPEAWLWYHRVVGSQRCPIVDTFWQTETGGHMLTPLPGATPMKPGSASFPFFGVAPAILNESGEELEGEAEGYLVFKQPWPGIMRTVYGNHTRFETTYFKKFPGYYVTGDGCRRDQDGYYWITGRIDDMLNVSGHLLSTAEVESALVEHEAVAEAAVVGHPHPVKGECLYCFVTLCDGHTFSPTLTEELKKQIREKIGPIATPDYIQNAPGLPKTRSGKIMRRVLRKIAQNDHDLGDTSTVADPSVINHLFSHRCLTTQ

In the case of `O=C(Nc1ccc2nc(-c3cccs3)c(-c3cccs3)nc2c1)NC12CC3CC(CC(C3)C1)C2` [ADG-207, 1-((1S,3s)-adamantan-1-yl)-3-(2,3-di(thiophen-2-yl)quinoxalin-6-yl)urea], at ACSS2, the “incorporation of alcohol-derived heavy acetyl groups into histone acetylation” value (from here on “incorporation”) is given as “prevents the incorporation of alcohol-derived heavy acetyl groups into histone acetylation”.

On to `CNC(=O)Nc1ccc2nc(-c3cccs3)c(-c3cccs3)nc2c1` [ADG-206, 1-(2,3-di(thiophen-2-yl)quinoxalin-6-yl)-3-methylurea], for which the “incorporation” value at ACSS2 is “prevents the incorporation of alcohol-derived heavy acetyl groups into histone acetylation”.

For `COCCNC(=O)Nc1ccc2nc(-c3cccs3)c(-c3cccs3)nc2c1` [ACSS2i, 1-(2,3-di(thiophen-2-yl)quinoxalin-6-yl)-3-(2-methoxyethyl)urea], the “Nuclear acetyl-CoA levels, mean Δ” value in test [1] is given as −0.25±0.05. Also, the “regulation of acetate-induced genes by ACSS2i” value in test [2] (in the absence of acetate) is “not regulated”. Further, the “acetate-induced genes that failed to become upregulated in the presence of ACSS2i” value in test [2] (of 3613 acetate-induced genes, 10 mM acetate 24 hours) is recorded as 2107 genes. The “expression of differentiation-induced genes (RNA-seq)” value in test [3] (24-hour ACSS2i 20 μM vs DMSO) is “a reduction in differentiation-induced genes”. The “expression of ND genes (genes linked to neuronal differentiation, 1,315 genes)” value in test [3] (ACSS2i-treated vs DMSO-treated CAD neurons) was “markedly reduced”. Also, the “genes that showed reduced expression upon ACSS2i treatment” value in test [3] (RNA-seq, 24-hour ACSS2i 20 μM vs DMSO) was determined as 299 genes. For the same compound, in test [4], the ACSS2 levels entry is listed as “without lowering ACSS2 levels”, the histone acetylation entry is “reduced” and the neuronal marker expression result is reported as “reduced”.

Regarding `CCCCCNC(=O)Nc1ccc2nc(-c3cccs3)c(-c3cccs3)nc2c1` [ADG-204, 1-(2,3-di(thiophen-2-yl)quinoxalin-6-yl)-3-penlylurea], at ACSS2, the “incorporation” value is recorded as “prevents the incorporation of alcohol-derived heavy acetyl groups into histone acetylation”.

For `COCCNC(=O)Nc1ccc2nc(-c3cccs3)c(-c3cccs3)nc2c1` [ADG-205, 1-(2,3-di(thiophen-2-yl)quinoxalin-6-yl)-3-(2-methoxyethyl)urea], on ACSS2, the “incorporation” value is “prevents the incorporation of alcohol-derived heavy acetyl groups into histone acetylation”.
